In article PMC10861881 (Proceedings of the National Academy of Sciences of the …, 2024):
pIC50: −log10 of the molar value. Values after ≈ are worked out from the molar mass of the structure shown.

Legend:
[1] = PK study IV/PO, mouse; format: in vivo
[2] = ELogD; format: physicochemical; conditions: pH 7.4
[3] = Hepatocyte intrinsic clearance, human; format: in vitro ADME; conditions: hepatocytes
[4] = Plasma protein binding, dog; format: in vitro ADME; conditions: beagle, pooled plasma
[5] = system: MKNK2; conditions: test concentration 500 nmol/L; cited from earlier work
[6] = system: MEK5; conditions: test concentration 500 nmol/L; cited from earlier work
[7] = PK study IV/PO, rat; format: in vivo
[8] = Hepatocyte intrinsic clearance, rat; format: in vitro ADME; conditions: hepatocytes
[9] = Hepatocyte intrinsic clearance, cynomolgus monkey; format: in vitro ADME; conditions: hepatocytes
[10] = Thermodynamic solubility FaSSIF/SGF; format: physicochemical; conditions: thermodynamic from solid
[11] = Plasma protein binding, cynomolgus monkey; format: in vitro ADME; conditions: pooled plasma
[12] = PK study IV/PO, cynomolgus monkey; format: in vivo
[13] = system: pFGFR2 (Y653/654); assay: Tumor PD; format: in vivo, mouse; conditions: SNU-16 xenograft, BALB/c nude mice, oral 5 and 10 mg/kg twice daily groups, 2 h postdose
[14] = Hepatocyte intrinsic clearance, dog; format: in vitro ADME; conditions: hepatocytes
[15] = system: p-ERK (Tyr202/204) in SNU-16 cells; assay: SNU-16 cellular PD assay, p-ERK HTRF; format: cell-based; conditions: Homo sapiens, SNU-16, 2 h, read-out: SNU16 PD IC50
[16] = system: FGFR2 fusion-positive cholangiocarcinoma; conditions: patients, across dose levels; cited from earlier work
[17] = Plasma protein binding, human; format: in vitro ADME; conditions: pooled plasma
[18] = Plasma protein binding, mouse; format: in vitro ADME; conditions: pooled plasma
[19] = Plasma protein binding, rat; format: in vitro ADME; conditions: Sprague-Dawley, pooled plasma
[20] = Stability in plasma and blood; format: in vitro ADME; conditions: plasma of all species, 5 μM, 37 °C, 18 h
[21] = PK study IV/PO, dog; format: in vivo
[22] = CACO2 permeability; conditions: human, Caco-2
[23] = Hepatocyte intrinsic clearance, mouse; format: in vitro ADME; conditions: hepatocytes

Vd ([1]; BALB/c nude, plasma, iv): 0.42 L/kg
clearance ([1]; BALB/c nude, plasma, iv): 4.4 mL/min/kg
half-life ([1]; BALB/c nude, plasma, iv): 66 min
bioavailability ([1]; BALB/c nude, plasma, po): 58%
IV CLu mouse ([1]; IV, unbound): 538 mL/min/kg
ELogD@7.4 [2]: 4.3/510
hepatocyte CLint [3]: < 1 µL/min/1e6 cells
fraction unbound at 18 h, 5 μM [4]: 0.023
IV CLu rat ([7]; IV, unbound): 3,813 mL/min/kg
Vd ([7]; Sprague-Dawley, in vivo, iv): 0.98 L/kg
half-life ([7]; Sprague-Dawley, in vivo, iv): 11.4 min
bioavailability ([7]; Sprague-Dawley, in vivo, po): 18%
hepatocyte CLint [8]: 30 µL/min/1e6 cells
hepatocyte CLint [9]: 6.5 µL/min/1e6 cells
solubility ([10]; FaSSIF): 49.3 µM (≈ 25.1 µg/mL)
solubility ([10]; SGF, simulated gastric fluid): 540 µM (≈ 275 µg/mL)
fraction unbound at 18 h, 5 μM [11]: 0.002
IV CLu cynomolgus monkey ([12]; IV, unbound): 1,100 mL/min/kg
Vd ([12]; plasma, iv): 0.26 L/kg
clearance ([12]; plasma, iv): 2.2 mL/min/kg
half-life ([12]; plasma, iv): 84 min
bioavailability ([12]; plasma, po): 47%
hepatocyte CLint [14]: 19 µL/min/1e6 cells
pIC50 [15]: 8.52
fraction unbound at 18 h, 5 μM [17]: 0.0014
fraction unbound at 18 h, 5 μM [18]: 0.0082
fraction unbound at 18 h, 5 μM [19]: 0.016
stability in plasma under PPB assay conditions [20]: stable
IV CLu dog ([21]; IV, unbound): 1,200 mL/min/kg
Vd ([21]; beagle, plasma, iv): 1.3 L/kg
clearance ([21]; beagle, plasma, iv): 28 mL/min/kg
half-life ([21]; beagle, plasma, iv): 33 min
bioavailability ([21]; beagle, plasma, po): 53%
Papp A→B [22]: 5.3 ×10⁻⁶ cm/s
Papp B→A [22]: 6.8 ×10⁻⁶ cm/s
hepatocyte CLint [23]: 29 µL/min/1e6 cells
Structure (SMILES): C=C(C)C(=O)Nc1ccc(-c2c(-c3ccc(Oc4nccc(C)n4)c(F)c3)c3c(N)ncnc3n2C)cc1 [Lirafugratinib]
inhibition of MKNK2 in kinome panel [5]: 89%
inhibition of MEK5 in kinome panel [6]: 92.4%
modulation of phosphorylated FGFR2 (pFGFR2) in tumor [13]: complete suppression
adverse effects occurring with treatment [16]: minimal hyperphosphatemia and diarrhea
